Results from patent US20210322415A1 (priority 2016, published 2021).

Key:
c-kit = c-kit (Homo sapiens, UniProt P10721); assay: Target cover in pre-clinical models: modelled mean free plasma concentration vs cellular IC50; type: in vivo; settings: doses up to 2.4 mg/kg
Description: 4.8 mg/kg (FIGS. 1M-1P) following dosing zs regimens of once daily continuous (QDCont), once daily 5 days on 2 days off (QD5on2off), or once daily 4 days (QD4on3off). […] The reduction in PK is shown following the last dose of drug (at either 4 or 5 days dosing), and overlaid on each plot (horizontal lines) are the cellular IC50 values generated in vitro for inhibition of pVEGFR-1,-2, pKit, pPDGFRα and pPDGFRβ, as indicated. For the plots exemplifying VEGFR and Kit cover, R-P stands for receptor phosphorylation in a cell based assay; C-P stands for cell proliferation; for VEGFR plots, T-G stands for tubule growth in an endothelial-fibroblast co-culture assay. […] For the graphs depicting PDGFRα and β cover, inhibition of PDGFRα and PDGFRβ phosphorylation and PDGFBB or PDGFAA driven proliferation are shown together with the relevant cell lines.

[1] = system: OV2022 tumour (ovarian cancer) xenografts; assay: OV2022 patient derived tumour xenograft efficacy study; type: in vivo; settings: 3 mg/kg, 5 days on 2 days off vs daily, alone or with 100 mg/kg olaparib
[2] = system: SW620, Calu6 and A498 tumor xenografts; assay: Tumor xenograft efficacy studies with intermittent dosing; type: in vivo, nude or scid mice; settings: for anti-tumor effects: oral once daily
From the text: Tumors were selected and randomized into groups when tumor volume reached approximately 0.2 cm^3. […] Groups of 10 animals were used, however in the final cycle cohorts of 5 animals were removed in between dosing group to support assessment of pharmacodynamic biomarkers in the tumor.

tumors = settings: reported in literature; cited from earlier work

Chain of c-kit (P10721 26-976): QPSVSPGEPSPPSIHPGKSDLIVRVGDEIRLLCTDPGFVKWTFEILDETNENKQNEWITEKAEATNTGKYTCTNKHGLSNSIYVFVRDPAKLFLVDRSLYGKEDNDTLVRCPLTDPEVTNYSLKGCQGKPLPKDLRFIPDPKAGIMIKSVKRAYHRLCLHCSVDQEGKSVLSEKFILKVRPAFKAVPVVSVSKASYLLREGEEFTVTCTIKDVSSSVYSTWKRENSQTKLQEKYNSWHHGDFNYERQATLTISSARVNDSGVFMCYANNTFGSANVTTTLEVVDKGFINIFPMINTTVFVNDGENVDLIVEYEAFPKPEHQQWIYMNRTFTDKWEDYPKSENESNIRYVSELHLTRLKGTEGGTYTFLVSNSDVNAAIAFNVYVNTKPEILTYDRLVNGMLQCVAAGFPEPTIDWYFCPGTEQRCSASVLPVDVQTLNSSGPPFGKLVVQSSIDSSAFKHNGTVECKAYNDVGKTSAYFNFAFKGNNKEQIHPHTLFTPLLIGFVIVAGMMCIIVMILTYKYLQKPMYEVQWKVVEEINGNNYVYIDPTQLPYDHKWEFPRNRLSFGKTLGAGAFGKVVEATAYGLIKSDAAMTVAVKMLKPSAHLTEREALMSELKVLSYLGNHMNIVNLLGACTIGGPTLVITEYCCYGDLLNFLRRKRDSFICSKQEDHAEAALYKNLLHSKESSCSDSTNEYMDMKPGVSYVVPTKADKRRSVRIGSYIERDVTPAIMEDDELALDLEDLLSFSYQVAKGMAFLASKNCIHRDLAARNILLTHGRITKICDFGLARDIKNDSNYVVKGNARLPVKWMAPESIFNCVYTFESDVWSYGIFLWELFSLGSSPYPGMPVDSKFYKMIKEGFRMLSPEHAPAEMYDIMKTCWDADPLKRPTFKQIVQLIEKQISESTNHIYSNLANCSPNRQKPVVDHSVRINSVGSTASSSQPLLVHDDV

## COc1cc2c(Oc3ccc4[nH]c(C)cc4c3F)ncnc2cc1OCCCN1CCCC1.O=C(O)/C=C\C(=O)O [cediranib, 4-[(4-fluoro-2-methyl-1H-indol-5-yl)oxy]-6-methoxy-7-[3-(pyrrolidin-1-yl)propoxy]quinazoline maleate]
c-kit
  target cover versus c-kit: achieving target cover
[1]
  efficacy of intermittent schedule versus constant dose: equivalent efficacy
[2]; 1.5 mg/kg, 4/3 schedule, three 7-day cycles (FIG. 5)
  efficacy (mean tumor volume versus time): in 2 out of the three models intermittent dosing of cediranib at 1.5 mg/kg on a 4/3 schedule maintains efficacy
[2]; 1.5 mg/kg, 5/2 schedule, three 7-day cycles (FIG. 3)
  efficacy (mean tumor volume versus time): maintains efficacy
[2]; 3 mg/kg, 4/3 schedule, three 7-day cycles (FIG. 6)
  efficacy (mean tumor volume versus time): maintains efficacy
[2]; 3 mg/kg, 5/2 schedule, three 7-day cycles (FIG. 4)
  efficacy (mean tumor volume versus time): maintains efficacy
[2]; 4 days on 3 days off schedule
  anti-tumor effects: maintains anti-tumor effects albeit at not as effectively as the 5/2 schedule
[2]; 5 days on 2 days off schedule, monotherapy
  anti-tumor effects: maintains anti-tumor effects
[2]; preclinical in vivo data, 5 days on/2 days off vs daily
  anti-tumor activity, intermittent compared to daily schedule: no difference in anti-tumor activity
tumors
  tumor growth in a range of preclinical models: inhibit the growth of tumors in a dose-dependent manner
